# Test results as given in US6015805A, “17β-nitro-11β-arylisteroids and their derivatives having agonist or antagonist hormonal properties” (Research Triangle Research North Carolina, priority 1999, dated 2000).
# Columns and labels:
# [1] = target: T1, glucocorticoid receptor (rGR) (Oryctolagus cuniculus, UniProt P59667); experiment: Receptor binding (rabbit), glucocorticoid receptor; conditions: relative to dexamethasone = 100
# T1 construct: the source of the glucocorticoid receptor was the thymus of the estrogen-primed immature female rabbit; from tissue; host or cells: thymus of the estrogen-primed immature female rabbit
# T1 sequence (P59667 1-772): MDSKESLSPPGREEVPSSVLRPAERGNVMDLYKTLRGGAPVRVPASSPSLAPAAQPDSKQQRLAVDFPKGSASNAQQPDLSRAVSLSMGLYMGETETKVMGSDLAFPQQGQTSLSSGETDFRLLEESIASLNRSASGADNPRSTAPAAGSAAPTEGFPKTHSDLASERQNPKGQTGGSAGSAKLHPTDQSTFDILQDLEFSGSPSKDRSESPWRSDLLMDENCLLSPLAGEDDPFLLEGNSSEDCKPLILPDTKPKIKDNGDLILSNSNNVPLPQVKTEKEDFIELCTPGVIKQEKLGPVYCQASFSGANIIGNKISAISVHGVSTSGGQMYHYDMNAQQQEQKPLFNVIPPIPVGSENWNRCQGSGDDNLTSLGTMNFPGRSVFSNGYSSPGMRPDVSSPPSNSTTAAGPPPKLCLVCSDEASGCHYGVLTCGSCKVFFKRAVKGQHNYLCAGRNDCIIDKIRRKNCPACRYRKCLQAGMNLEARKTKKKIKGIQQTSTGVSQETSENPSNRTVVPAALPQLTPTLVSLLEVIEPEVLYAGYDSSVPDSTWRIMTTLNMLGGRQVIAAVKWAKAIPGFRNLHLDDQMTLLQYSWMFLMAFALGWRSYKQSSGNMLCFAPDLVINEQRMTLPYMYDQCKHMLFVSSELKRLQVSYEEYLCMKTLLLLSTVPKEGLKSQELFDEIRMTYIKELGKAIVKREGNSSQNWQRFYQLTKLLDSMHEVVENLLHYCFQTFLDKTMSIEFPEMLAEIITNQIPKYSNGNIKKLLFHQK
# Procedure: The affinity of the compounds for hormone receptors for progestins and glucocorticoids from rabbits was determined by standard procedures similar to those that have been described in C. E. Cook, et al., Human Reproduction, Volume 9, supplement 1, pp. 32-39 (1994). However, the source of the glucocorticoid receptor was the thymus of the estrogen-primed immature female rabbit. The affinity of the compounds for the human progesterone hormone receptor was determined by standard procedures similar to those that have been described in Horwitz, et al., Cell, 28: 633-42 (1982) and Mockus, et al., Endocrinology, 110: 1564-71 (1982). The receptor was obtained in cytosol from human T-47D breast cells and [^3 H]-R5020 was used as the radioligand. T47D cells (1 billion/mL) were homogenized in TEDG buffer (10 mM Tris, 1.5 mM EDTA, 1 mM dithiothreitol, 1 mM sodium molybdate, and 10% glycerol) using a Dounce pestle A, and the homogenate was centrifuged at 34,000×g for 1 hour. The supernatant was stored at -80° C. An aliquot of receptor preparation was combined with test compound, 0.4 nM [^3 H]-R5020, and TEDG buffer to a final volume of 150 ,μL and incubated for 4 hours at 4° C. in microtiter plates. At the end of incubation 40 μL 40% polyethylene glycol and 15 μL 1% human gamma globulin was added to the incubate and the contents of each well were harvested onto double thick B filter mats (Wallac LKB) using a TomTec harvester. A film of Meltilux scintillant wax was applied to the dried filter mats and the mats were counted in a scintillation counter to determine inhibition of [^3 H]-R5020 binding. Data are expressed as lC50 values, i.e., the concentration of compound that inhibits radioligand binding by 50%.
# human T-47D breast cells = experiment: T47D cell proliferation, antagonist format (inhibition of R5020-mediated [^3 H]-thymidine incorporation); assay type: cell-based; conditions: for EC50: Homo sapiens, T47D, concentration which inhibits 0.15 nM R5020-mediated proliferation by 50%; for Cell Proliferation, Antagonist Format % inhibition: maximum % inhibition, 0.15 nM R5020
# Procedure: Human T-47D breast cells grown in nutrient media were incubated with the standard progestin R5020 alone or with R5020 plus test compound and then assessed by standard procedures for proliferation using incorporation of [^3 H]-thymidine as the measurement. […] The maximum % inhibition (a measure of the efficacy of the compounds) is also given. In the agonist format of this assay the compounds were tested at concentrations ranging from 0.01 to 10 nM and the maximum % stimulation at any dose is listed in Table 3.
# rabbits = experiment: Anti-McGinty assay (antiprogestational activity, test compound plus progesterone); assay type: in vivo, rabbit; parameters: key to McPhail Index, Anti-McGinty Assay, Standard / McPhail Index, Anti-McGinty Assay (Antagonist): McPhail scoring scale for progestational endometrial response; conditions: for McPhail Index, Anti-McGinty Assay (Antagonist): plus progesterone
# Procedure: Progestational activity and antiprogestational activity were determined in rabbits by means of the McGinty test (test compound alone, procedure of McGinty et al., Endocrinology, 24: 829-832 (1939)) or anti-McGinty test (test compound plus progesterone, procedure of Tamara et al., Jpn. J. Fertil Steril 24: 48-81 (1979)). Results were scored according to McPhail (McPhail, J Physiol., 83: 146 (1934)). These are standard procedures known to those skilled in the art. The results of these assays are shown in Tables 4 (agonist activity) and 5 (antagonist activity). […] Physiol, 83: 146 (1934)).
Structure (SMILES),"Relative Binding Affinity, rGR, Relative Affinity (Dexamethasone) [1]",EC50 (human T-47D breast cells) [nM],"Cell Proliferation, Antagonist Format % inhibition (human T-47D breast cells) [%]","McPhail Index, Anti-McGinty Assay (Antagonist) (rabbits; dose 0.3 micrograms)","McPhail Index, Anti-McGinty Assay (Antagonist) (rabbits; dose 3 micrograms)","McPhail Index, Anti-McGinty Assay (Antagonist) (rabbits; dose 30 micrograms)","agonist/antagonist profile (rabbits; in words, McGinty and anti-McGinty tests)",antiprogestational activity in the anti-McGinty assay (rabbits; in words)
"CC(=O)c1ccc([C@H]2C[C@@]3(C)[C@@H](CC[C@]3(/C=C/CO)[N+](=O)[O-])[C@@H]3CCC4=CC(=O)CCC4=C32)cc1 [I 4-CH3 CO H O H CH=CHCH2 OH, 11β-(4-acetylphenyl)-17α-(E-3-hydroxy-1-propenyl)-17β-nitroestra-4,9-dien-3-one]",4,122,86,1.53 ± 0.68,1.76 ± 0.45,2.3 ± 0.0,–,–
"CC#C[C@]1([N+](=O)[O-])CC[C@H]2[C@@H]3CCC4=CC(=O)CCC4=C3[C@@H](c3ccc(C(C)=O)cc3)C[C@@]21C [I 4-CH3 CO H O H --CC--CH3, 11β-(4-Acetylphenyl)-17β-nitro-17α-(1-propynyl)estra-4,9-dien-3-one]",20,3.3,90,2.173 ± 0.42,2.47 ± 0.15,0.13 ± 0.12,mixed (agonist/antagonist) profile,–
"CC1=[N+]([O-])C2(CC1)CCC1C3CCC4=CC(=O)CCC4=C3C(c3ccc(N(C)C)cc3)CC12C (stereo not drawn) [II 4-Me2 N H O H -- CH3, 3',4'-dihydro-11β-(4-(N,N-dimethylamino)phenyl)-5'-methyl-1'-oxo-spiro[estra-4,9-dien-17β,2'(2'H)-pyrrole]-3-one]",2,–,–,2.03 ± 0.14,1.9 ± 0.85,0 ± 0,–,potent antiprogestin in the anti-McGinty assay
"CN(C)c1ccc([C@H]2C[C@@]3(C)[C@@H](CC[C@]3(CCCO)[N+](=O)[O-])[C@@H]3CCC4=CC(=O)CCC4=C32)cc1 [I 4-Me2 N H O H --(CH2)3 OH, 11β-[4-(N,N-Dimethylamino)phenyl]-17α-(3-hydroxypropyl)-17β-nitroestra-4,9-dien-3-one]",74,12,89,1.83 ± 0.48,1.87 ± 0.98,0.43 ± 0.31,–,–
"CC(=O)c1ccc([C@H]2C[C@@]3(C)[C@@H](CC[C@]3(CCCO)[N+](=O)[O-])[C@@H]3CCC4=CC(=O)CCC4=C32)cc1 [I 4-CH3 CO H O H --(CH2)3 OH, 11β-(4-Acetylphenyl)-17α-(3-hydroxypropyl)-17β-nitroestra-4,9-dien-3-one]",3,175,96,2.93 ± 0.12,2.43 ± 0.6,1.60 ± 0.66,–,–
